Consider 1 molecule from ChEMBL document CHEMBL5726197, “Oxoazetidine derivatives, process for the preparation thereof and use thereof in human medicine and in cosmetics” (2017).

By EC50 is commonly meant the concentration needed to bring the measured effect to its halfway point.

Test [1] has as its target Melanocyte-stimulating hormone receptor (Homo sapiens, UniProt Q01726). Put plainly: (§1) Transactivation Assay: In the presence of an activator (agonist), the melanocortin receptor will activate the cAMP pathway which, via the CRE-Luc vector, will result in the synthesis of luciferase. After the addition of a lysis buffer containing a luminescent substrate for luciferase, it will be possible to measure the luminescence proportional to the degree of activation or of inhibition of the receptor. The products are solubilized at 10 mM in DMSO. They are tested in the form of dose-response at a final DMSO concentration of 0.1%. The range comprising 10 points and one zero begins at 10 μM with 4-fold dilutions. For testing agonists, the products are tested alone. For determining the behaviour of antagonists, the products of interest are tested in the presence of 1 nM NDP-MSH (reference agonist). The cells are seeded at a rate of 5000 cells per well (384 well plate) in serum-free DMEM medium, and incubated overnight at 37° C., 5% CO2.The products and the reference ligand (NDP-MSH) are added the following day, and the plates are again incubated for 6 h at 37° C., 5% CO2. After the addition of lysis buffer containing luciferin, the plates are read on a Top-Count instrument. The results are standardized as % activity using the 100% (cells+NDP-MSH at 10 nM) and 0% (cells alone) controls. An EC50 is calculated for each product using the XLFit software. The results are given in nM. […].

The target of the next test is Melanocortin receptor 4 (Homo sapiens, UniProt P32245). The test is described as §1.
Melanocortin receptor 4, sequence (P32245 whole entry): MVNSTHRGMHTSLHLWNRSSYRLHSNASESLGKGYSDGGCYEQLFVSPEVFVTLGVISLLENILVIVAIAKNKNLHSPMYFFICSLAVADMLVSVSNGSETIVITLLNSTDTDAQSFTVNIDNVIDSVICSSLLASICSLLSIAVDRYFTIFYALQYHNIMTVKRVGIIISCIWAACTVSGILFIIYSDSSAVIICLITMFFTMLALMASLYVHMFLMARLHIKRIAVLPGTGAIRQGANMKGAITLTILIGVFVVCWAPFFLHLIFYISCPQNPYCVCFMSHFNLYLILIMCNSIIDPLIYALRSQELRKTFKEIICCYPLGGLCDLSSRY

Melanocyte-stimulating hormone receptor, sequence (Q01726 whole entry): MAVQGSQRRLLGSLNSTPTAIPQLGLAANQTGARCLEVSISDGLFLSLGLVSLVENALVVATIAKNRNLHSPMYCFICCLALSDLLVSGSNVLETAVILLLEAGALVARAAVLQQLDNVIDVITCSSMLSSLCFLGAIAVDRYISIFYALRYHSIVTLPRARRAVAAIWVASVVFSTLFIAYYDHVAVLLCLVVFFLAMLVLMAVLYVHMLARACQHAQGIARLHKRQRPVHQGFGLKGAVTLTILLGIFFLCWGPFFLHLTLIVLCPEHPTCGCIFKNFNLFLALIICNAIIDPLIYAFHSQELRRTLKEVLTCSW

Consider `CCCCCC1(c2ccccc2OC)CN(C(=O)[C@@H](Cc2ccc(OC)cc2)NC(=O)CCc2c[nH]cn2)C1`, for which the values for the EC50 (in test [1]; on Melanocortin receptor 4) were 0.06 µM and 0.03 µM, respectively.
